Experimental data taken from patent US7632683B2, “Method, apparatus, reagent kit and reagent for distinguishing erythrocytes in a biological specimen” (Sysmex Corporation, priority 2004, dated 2009).

test system: yeast-like fungi (C. glabrata); assay: Flow cytometry of urine specimen spiked with yeast-like fungi: fluorescence stainability of the fungi; format: cell-based; conditions: average fluorescence signal of yeast-like fungi in human urine without erythrocytes; substance at 1.0 wt % in diluting liquid in place of 2-phenoxyethanol; relative values on scale 0-255
Method: A staining liquid was used which was obtained by dissolving a fluorescent dye represented by the following formula in ethylene glycol so that the final concentration in the sample for analysis would be 6 ppm.
In the step S1, the sample preparing section 200 is controlled to execute the preparation of a sample for analysis. The operation of the sample preparing section 200 in the step S1 will be described with reference to FIG. 5. First, the dispensing device 224 sucks 522 μL of a diluting liquid from the sample container 231 of the reagent setting section 222, and then sucks 180 µL of a specimen (human urine) from the specimen container 225 that is set in the specimen setting section 221. The dispensing device 224 then dispenses the sucked diluting liquid and specimen to the reaction vessel 226 that is set in the incubator 223. Next, the dispensing device 224 sucks 18 μL of a staining liquid from the reagent container 227 of the reagent setting section 222, and dispenses the staining liquid to the reaction vessel 226. Thereafter, the incubator 223 stirs the mixture for 10 seconds to stain the diluted specimen while keeping the liquid temperature within the reaction vessel 226 containing the specimen, diluting liquid, and staining liquid to be 35 °C. The sample liquid for analysis thus prepared is sucked by the dispensing device 224, and is supplied to the sample container 233. The sample liquid for analysis supplied to the sample container 233 is let to flow through the flow cell 301 of the detecting section 300.
In the step S2, the detecting section 300 is controlled to detect signals reflecting the characteristics of each particle from the particles in the sample liquid for analysis. The operation of the detecting section 300 in the step S2 will be described with reference to FIG. 6. When the sample liquid is supplied to the sample container 233 as described above, the sample liquid is guided to the nozzle 303 by the operation of pumps and valves (not illustrated). Then, the sample liquid is ejected from the nozzle 303 to the flow cell 301. Simultaneously with this, a sheath liquid is supplied to the flow cell 301 from a sheath liquid container (not illustrated) via a sheath liquid inlet 304. By this, the sample liquid is surrounded by the sheath liquid in the flow cell 301, and is further narrowed down at by the orifice section 302 to flow. By narrowing the flow of the sample liquid, the particles such as erythrocytes and bacteria contained in the sample liquid are arranged in one line to flow through the orifice section 302. A laser beam emitted from the laser light source 306 is condensed by the condenser lens 307 and is radiated to the sample liquid that is flowing through the orifice section 302. The forward scattered light emitted from a particle in the sample liquid irradiated with the laser beam is condensed by the collector lens 309. Then the forward scattered light that has passed through the pinhole 310 is received and subjected to photoelectric conversion by the photodiode 308 to become a pulse-like forward scattered light signal. The fluorescence emitted from the particle in the sample liquid irradiated with the laser beam is condensed by the collector lens 312. Then the fluorescence that has passed through the filter 313 and the pinhole 314 is received and subjected to photoelectric conversion by the photomultiplier tube 311 to become a pulse-like fluorescence signal. The forward scattered light signal and the fluorescence signal are amplified respectively by the amplifiers 315, 316 and are sent to the controlling section 400.
First, the forward scattered light signal and the fluorescence signal detected by the detecting section are input into the signal processing circuit 403.

**Q.** Which Fluorescence intensity does the source give for `CC(O)COc1ccccc1` (stereo not shown) [1-phenoxy-2-propanol] here?
**A.** The Fluorescence intensity was 103.

**Q.** With `c1ccc2scnc2c1` [Benzothiazole] as the compound, how does the Fluorescence intensity read?
**A.** The Fluorescence intensity was 92.

**Q.** `OCc1ccccc1` [Benzyl alcohol] was tested. Which Fluorescence intensity did it give?
**A.** The Fluorescence intensity was 73.

**Q.** For `Oc1ccccc1` [Phenol], which Fluorescence intensity is on record?
**A.** Its Fluorescence intensity is 55.

**Q.** For `CC(=O)Oc1ccccc1` [Phenyl acetate], which Fluorescence intensity is on record?
**A.** The Fluorescence intensity was 82.

**Q.** Which Fluorescence intensity does the source give for `OCCc1ccccc1` [β-phenethyl alcohol] here?
**A.** Its Fluorescence intensity is 84.

same assay, conditions: human urine with erythrocytes plus C. glabrata; diluting liquid with 2-phenoxyethanol 7.5 g/l, pH 7.0 (Example 1) versus without (Example 2)

**Q.** For `OCCOc1ccccc1` [2-phenoxyethanol], which “Fluorescence intensity of yeast-like fungi compared with erythrocytes (two-dimensional scattergram)” value is on record?
**A.** Its value is “larger fluorescence intensity than the erythrocytes”.
